# From patent US5279939A, “Protein protease inhibitors from streptomyces” (SmithKline Beecham Corporation, priority 1992, dated 1994)
# Tested on: trypsin
# Assay: chromogenic trypsin inhibition assay using KABI S2288 substrate
# Assay type: biochemical
# Conditions: 25 ng trypsin, 410 nm
# Protocol: Trypsin inhibitory activity was determined in a chromogenic assay using KABI S2288 as substrate (HO ILE PRO ARG p-nitroanilide.) Scisson of the ARG-p-nitroanilide bond releases p-nitroaniline which absorbs at 410 nm; thus, the extent of cleavage is measured by the increase in absorbance at 410 nm. This assay was used in qualitative manner to determine the inhibitory activity of LTI and LEP-10. Briefly, serial two fold dilutions of either conditioned medium (CM) or ammonium sulfate concentrates (AS) of conditioned medium were mixed with 25 ng of trypsin and the substrate was added. After 30 min at room temperature, the assay was stopped by addition of acetic acid. The assay was carried out in microtiter plates, which were then read in an ELISA reader. Similar samples of PSN were included as controls. […] The data shown are the absorbances measured following cleavage of the chromogenic substrate by trypsin.
substance,measurement,setting,value
plasminostreptin [PSN],absorbance following cleavage of the chromogenic substrate by trypsin,"ammonium sulfate concentrate (AS), reciprocal dilution 1, 30 min, No Inh. control 0.763 (LTI) / 0.751 (PSN)",0.018
same,absorbance following cleavage of the chromogenic substrate by trypsin,"ammonium sulfate concentrate (AS), reciprocal dilution 2, 30 min",0.021
same,absorbance following cleavage of the chromogenic substrate by trypsin,"ammonium sulfate concentrate (AS), reciprocal dilution 4, 30 min",0.023
same,absorbance following cleavage of the chromogenic substrate by trypsin,"ammonium sulfate concentrate (AS), reciprocal dilution 8, 30 min",0.024
same,absorbance following cleavage of the chromogenic substrate by trypsin,"ammonium sulfate concentrate (AS), reciprocal dilution 16, 30 min",0.036
same,absorbance following cleavage of the chromogenic substrate by trypsin,"ammonium sulfate concentrate (AS), reciprocal dilution 32, 30 min",0.076
same,absorbance following cleavage of the chromogenic substrate by trypsin,"conditioned medium (CM), reciprocal dilution 1, 30 min room temperature, No Inh. control 0.898 (LTI) / 0.772 (PSN)",0.010
same,absorbance following cleavage of the chromogenic substrate by trypsin,"conditioned medium (CM), reciprocal dilution 2, 30 min",0.046
same,absorbance following cleavage of the chromogenic substrate by trypsin,"conditioned medium (CM), reciprocal dilution 4, 30 min",0.046
same,absorbance following cleavage of the chromogenic substrate by trypsin,"conditioned medium (CM), reciprocal dilution 8, 30 min",0.053
same,absorbance following cleavage of the chromogenic substrate by trypsin,"conditioned medium (CM), reciprocal dilution 16, 30 min",0.058
same,absorbance following cleavage of the chromogenic substrate by trypsin,"conditioned medium (CM), reciprocal dilution 32, 30 min",0.273
